In US20050261332A1, “Sulfonamides and uses thereof” (priority 2004, published 2005):

Biological target: T1, GHS-R (Homo sapiens, UniProt Q92847)
T1 construct: expressed in transfected cells; host or cells: COS-7 cells
Test: GHS-R competition binding assay (Ki of GHS-R antagonizing compounds)
Procedure: One exemplary binding assay is as follows: GHS-R expressing COS-7 cells cultured at a density of 1×10^5 cells per well so that binding is assayed in the range of about 5-8 % binding of the radioactive ligand. For example, the cells can express an endogenous nucleic acid encoding GHS-R or an exogenous nucleic acid encoding GHS-R. Cells transfected with an exogenous nucleic acid encoding GHS-R can be used, e.g., two days, after transfection. Competition binding experiments are performed for 3 hours at 4° C. using 25 pM of ^125I-ghrelin in 0.5 ml of 50 mM HEPES buffer, pH 7.4, supplemented with 1 mM CaCl2, 5 mM MgCl2, and 0.1% (w/v) bovine serum albumin, 40 mg/ml bacitracin. Non-specific binding can be determined as the binding in the presence of […] of unlabeled ghrelin. Cells are washed twice in 0.5 ml of ice-cold buffer and then lysed with 0.5-1 ml of lysis buffer (8 M Urea, 2% NP40 in 3 M acetic acid). After washing and lysis, the bound radioactivity is counted. Assays can be run in duplicate or triplicate, e.g., to provide statistical power.
Values of the dissociation and inhibition constants (Kd and Ki) can be estimated from competition binding experiments using the equation: Kd=IC50-L and Ki=IC50/(1+L/Kd), where L is the concentration of radioactive ligand. Bmax values can be estimated from competition binding experiments using the equation Bmax=B0 IC50/[ligand], where B0 is the specifically bound radioligand.

T1 sequence (Q92847 whole entry, species assumed): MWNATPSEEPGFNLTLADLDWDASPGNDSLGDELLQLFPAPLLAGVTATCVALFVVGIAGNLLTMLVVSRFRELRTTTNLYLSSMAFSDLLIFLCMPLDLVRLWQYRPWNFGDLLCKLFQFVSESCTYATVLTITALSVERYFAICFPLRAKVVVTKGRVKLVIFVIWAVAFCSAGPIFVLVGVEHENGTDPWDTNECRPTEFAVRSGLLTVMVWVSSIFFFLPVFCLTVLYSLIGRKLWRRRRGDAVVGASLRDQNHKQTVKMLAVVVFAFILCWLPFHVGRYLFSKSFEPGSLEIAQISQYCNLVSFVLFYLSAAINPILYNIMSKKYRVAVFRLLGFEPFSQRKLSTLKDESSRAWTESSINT

First: C=C(C)C(=O)OCCNC(=O)NCc1ccccc1-c1ccc(C(=O)[C@@H](CCc2ccccc2)NS(=O)(=O)CCCN(CC)CC)cc1 [Compound 195, (R)-2-(3-((4′-(2-(3-(diethylamino)propylsulfonamido)-4-phenylbutanoyl)biphenyl-2-yl)methyl)ureido)ethyl methacrylate]
Second: C=C(C)C(=O)OCCNC(=O)NCc1ccccc1-c1ccc(C(=O)[C@@H](CCc2ccccc2)NS(=O)(=O)CCN(CC)CC)cc1 [Compound 202, (R)-2-(3-((4′-(2-(2-(diethylamino)ethylsulfonamido)-4-phenylbutanoyl)biphenyl-2-yl)methyl)ureido)ethyl methacrylate]
The Ki of the first is lower: < 0.1 µM for the first, 0.1 to 1 µM for the second.

Going from `CCN(CC)CCS(=O)(=O)N[C@H](CCc1ccccc1)C(=O)c1ccc(-c2ccccc2COC(=O)NC)cc1` [Compound 215, (R)-(4′-(2-(2-(diethylamino)ethylsulfonamido)-4-phenylbutanoyl)biphenyl-2-yl)methyl methylcarbamate] to `CCN(CC)CCS(=O)(=O)N[C@H](CCc1ccccc1)C(=O)c1ccc(-c2ccccc2CNC(=O)NC)cc1` [Compound 209, (R)-2-(diethylamino)-N-(1-(2′-((3-methylureido)methyl)biphenyl-4-yl)-1-oxo-4-phenylbutan-2-yl)ethanesulfonamide], the Ki falls from > 1 µM to < 0.1 µM. The second binds more tightly here.

Compared with `CCN(CC)CCCS(=O)(=O)N[C@H](COCc1ccccc1)C(=O)NCc1ccc(-c2ccccc2CNC(C)=O)cc1` [Compound 216, (R)-N-[2′-(Acetylamino-methyl)-biphenyl-4-ylmethyl]-3-benzyloxy-2-(3-diethylamino-propane-1-sulfonylamino)-propionamide], `CCN(CC)CCCS(=O)(=O)N[C@H](CCc1ccccc1)C(=O)NCc1ccc(-c2ccccc2CNC(=O)NC)cc1` [Compound 187, (R)-2-(3-(diethylamino)propylsulfonamido)-N-((2′-((3-methylureido)methyl)biphenyl-4-yl)methyl)-4-phenylbutanamide] is lower in Ki: > 1 µM for the first, 0.1 to 1 µM for the second. The second binds more tightly here.

`CN([C@H](COCc1ccccc1)C(=O)N1CCC2(CC1)CN(S(C)(=O)=O)c1ccccc12)S(=O)(=O)CCCCl` [Compound 157, (R)-N-(3-(benzyloxy)-1-(1-(methylsulfonyl)spiro[indoline-3,4′-piperidine]-1′-yl)-1-oxopropan-2-yl)-3-chloro-N-methylpropane-1-sulfonamide] and `CCN(C)CCS(=O)(=O)N[C@H](COCc1ccccc1)C(=O)N1CCC2(CC1)CN(S(C)(=O)=O)c1ccccc12` [Compound 130, (R)-N-(3-(benzyloxy)-1-(1-(methylsulfonyl)spiro[indoline-3,4′-piperidine]-1′-yl)-1-oxopropan-2-yl)-2-(ethyl(methyl)amino)ethanesulfonamide] fall in the same range of Ki: 0.1 to 1 µM for the first, 0.1 to 1 µM for the second.

First: CCN(CC)CCCS(=O)(=O)N[C@H](CCc1ccccc1)C(=O)c1ccc(-c2ccccc2CN)cc1 [Compound 191, (R)-N-(1-(2′-(aminomethyl)biphenyl-4-yl)-1-oxo-4-phenylbutan-2-yl)-3-(diethylamino)propane-1-sulfonamide]
Second: CCN(CC)CCCS(=O)(=O)N[C@H](CCc1ccccc1)C(=O)c1ccc(-c2ccccc2CNC(C)=O)cc1 [Compound 192, (R)-N-((4′-(2-(3-(diethylamino)propylsulfonamido)-4-phenylbutanoyl)biphenyl-2-yl)methyl)acetamide]
The Ki of the first is higher: 0.1 to 1 µM for the first, < 0.1 µM for the second. The second binds more tightly here.

First: CC(C)NCCCS(=O)(=O)N[C@H](COCc1ccccc1)C(=O)N1CCC2(CC1)CN(S(C)(=O)=O)c1ccccc12 [Compound 141, (R)-N-(3-(benzyloxy)-1-(1-(methylsulfonyl)spiro[indoline-3,4′-piperidine]-1′-yl)-1-oxopropan-2-yl)-3-(isopropylamino)propane-1-sulfonamide]
Second: CS(=O)(=O)N1CC2(CCN(C(=O)[C@@H](COCc3ccccc3)NS(=O)(=O)CCCNC3CC3)CC2)c2ccccc21 [Compound 150, (R)-N-(3-(benzyloxy)-1-(1-(methylsulfonyl)spiro[indoline-3,4′-piperidine]-1′-yl)-1-oxopropan-2-yl)-3-(cyclopropylamino)propane-1-sulfonamide]
The Ki of the first is lower: < 0.1 µM for the first, > 1 µM for the second. The first binds more tightly here.

`CCN(CC)CCCS(=O)(=O)N[C@H](CCc1ccccc1)C(=O)c1ccc(-c2ccccc2NC(=O)OC(C)(C)C)cc1` [Compound 167, (R)-tert-butyl 4′-(2-(3-(diethylamino)propylsulfonamido)-4-phenylbutanoyl)biphenyl-2-ylcarbamate] and `CCN(CC)CCCS(=O)(=O)N[C@H](CCc1ccccc1)C(=O)c1ccc(-c2ccccc2NC(=O)NC)cc1` [Compound 171, (R)-3-(diethylamino)-N-(1-(2′-(3-methylureido)biphenyl-4-yl)-1-oxo-4-phenylbutan-2-yl)propane-1-sulfonamide] fall in the same range of Ki: 0.1 to 1 µM for the first, 0.1 to 1 µM for the second.

First: CCN(CC)CCCS(=O)(=O)N[C@H](CCc1ccccc1)C(=O)c1ccc(-c2ccccc2C(N)=O)cc1 [Compound 174, (R)-4′-(2-(3-(diethylamino)propylsulfonamido)-4-phenylbutanoyl)biphenyl-2-carboxamide]
Second: CCN(CC)CCCS(=O)(=O)N[C@H](CCc1ccccc1)C(=O)c1ccc(-c2ccccc2CNC(=O)NC)cc1 [Compound 196, (R)-3-(diethylamino)-N-(1-(2′-((3-methylureido)methyl)biphenyl-4-yl)-1-oxo-4-phenylbutan-2-yl)propane-1-sulfonamide]
The Ki of the first is higher: 0.1 to 1 µM for the first, < 0.1 µM for the second.

First: CCN(CC)CCS(=O)(=O)N[C@H](COCc1ccccc1)C(=O)N1CCC2(CC1)CN(S(C)(=O)=O)c1ccccc12 [Compound 132, (R)-N-(3-(benzyloxy)-1-(1-(methylsulfonyl)spiro[indoline-3,4′-piperidine]-1′-yl)-1-oxopropan-2-yl)-2-(diethylamino)ethanesulfonamide]
Second: CCN(CCS(=O)(=O)N[C@H](COCc1ccccc1)C(=O)N1CCC2(CC1)CN(S(C)(=O)=O)c1ccccc12)C(C)C [Compound 133, (R)-N-(3-(benzyloxy)-1-(1-(methylsulfonyl)spiro[indoline-3,4′-piperidine]-1′-yl)-1-oxopropan-2-yl)-2-(ethyl(isopropyl)amino)ethanesulfonamide]
The Ki of the first is lower: < 0.1 µM for the first, > 1 µM for the second. The first binds more tightly here.

Compared with `CCN(CC)CCCS(=O)(=O)N[C@H](CCc1ccccc1)C(=O)NCc1ccc(-c2ccccc2CN)cc1` [Compound 180, (R)-N-((2′-(aminomethyl)biphenyl-4-yl)methyl)-2-(3-(diethylamino)propylsulfonamido)-4-phenylbutanamide], `CCN(CC)CCCS(=O)(=O)N[C@H](CCc1ccccc1)C(=O)NCc1ccc(-c2ccccc2CO)cc1` [Compound 207, (R)-2-(3-(diethylamino)propylsulfonamido)-N-((2′-(hydroxymethyl)biphenyl-4-yl)methyl)-4-phenylbutanamide] is lower in Ki: 0.1 to 1 µM for the first, < 0.1 µM for the second.

First: CCN(CC)CCCS(=O)(=O)N[C@H](CCc1ccccc1)C(=O)N1CCC2(CC1)CN(S(C)(=O)=O)c1ccccc12 [Compound 163, (R)-3-(diethylamino)-N-(1-(1-(methylsulfonyl)spiro[indoline-3,4′-piperidine]-1′-yl)-1-oxo-4-phenylbutan-2-yl)propane-1-sulfonamide]
Second: CS(=O)(=O)N1CC2(CCN(C(=O)[C@@H](COCc3ccccc3)NS(=O)(=O)CCN3CCOCC3)CC2)c2ccccc21 [Compound 138, (R)-N-(3-(benzyloxy)-1-(1-(methylsulfonyl)spiro[indoline-3,4′-piperidine]-1′-yl)-1-oxopropan-2-yl)-2-morpholinoethanesulfonamide]
The Ki of the first is lower: < 0.1 µM for the first, > 1 µM for the second.

First: CCN(CC)CCS(=O)(=O)N[C@H](CCc1ccccc1)C(=O)c1ccc(-c2ccccc2CNC(C)=O)cc1 [Compound 204, (R)-N-((4′-(2-(2-(diethylamino)ethylsulfonamido)-4-phenylbutanoyl)biphenyl-2-yl)methyl)acetamide]
Second: CCNC(=O)Nc1ccccc1-c1ccc(C(=O)[C@@H](COCc2ccccc2)NS(=O)(=O)CCCN(CC)CC)cc1 [Compound 175, (R)-N-(3-(benzyloxy)-1-(2′-(3-ethylureido)biphenyl-4-yl)-1-oxopropan-2-yl)-3-(diethylamino)propane-1-sulfonamide]
The Ki of the first is lower: < 0.1 µM for the first, 0.1 to 1 µM for the second.

`CCN(CC)CCCS(=O)(=O)N[C@H](COCc1ccccc1)C(=O)NCc1ccc(-c2ccccc2-c2noc(=O)[nH]2)cc1` [Compound 164, (R)-3-Benzyloxy-2-(3-diethylamino-propane-1-sulfonylamino)-N-[2′-(5-oxo-4,5-dihydro-[1,2,4]oxadiazol-3-yl)-biphenyl-4-ylmethyl]-propionamide] and `CCN(CC)CCCS(=O)(=O)N[C@H](COCc1ccccc1)C(=O)NCc1ccc(-c2ccccc2-c2nn[nH]n2)cc1` [Compound 156, (R)-3-Benzyloxy-2-(3-diethylamino-propane-1-sulfonylamino)-N-[2′-(2H-tetrazol-5-yl)-biphenyl-4-ylmethyl]-propionamide] fall in the same range of Ki: 0.1 to 1 µM for the first, 0.1 to 1 µM for the second.

`CCN(CC)CCCS(=O)(=O)N[C@H](CCc1ccccc1)C(=O)NCc1ccc(-c2ccccc2-c2nn[nH]n2)cc1` [Compound 161, (R)-N-((2′-(2H-tetrazol-5-yl)biphenyl-4-yl)methyl)-2-(3-(diethylamino)propylsulfonamido)-4-phenylbutanamide] was tested, and the Ki was 0.1 to 1 µM.
